Values quoted from earlier work, collected in patent publication US20230355508A1, “TREATING NEUROPATHIC PAIN IN SPINAL CORD INJURED INDIVIDUALS” (CNS Biosciences, Inc., priority 2016, published 2023).
Read-outs that look alike come from different tables or passages of the source.

Test system: neuropathic pain following spinal cord injury
Settings: Finnerup et al., Scandinavian Journal of Pain 2009; for relief of neuropathic pain following spinal cord injury: patients with neuropathic pain following SCI

For `CC[C@@H](C(N)=O)N1CCCC1=O` (single isomer, unassigned) [levetiracetam], the “relief of spasm severity following spinal cord injury” value (patients with SCI) is listed as “does not relieve”, the “relief of neuropathic pain following spinal cord injury” value is listed as “does not relieve” and the “relief of neuropathic pain following spinal cord injury” value (listed as Levetiracetam) is listed as “no analgesic or other benefit”.
